The source of these data is patent US12594339B2, “Lipid prodrugs of JAK inhibitors and uses thereof” (Seaport Therapeutics, Inc., priority 2019, dated 2026).

Molecules are shown by their SMILES.

Data set [1] in a line: Lymphatic transport assay in mesenteric lymph-duct cannulated rats. It counts as in vivo, rat. To be noted: total tofacitinib related compound (lymph hydrolysed before assay), intraduodenal infusion, anaesthetised mesenteric lymph-duct cannulated rats, lymph collected up to 8 h. Here is the method:
In order to assess the lymphatic transport of disclosed lipid prodrugs in rats, the mesenteric lymph ducts of the rats used in this study were cannulated to allow continual collection of mesenteric lymph. Lipid formulations containing the compound of interest were then administered to the animals, lymph was collected, and drug concentrations in the lymph samples were quantified.
Lipid-based formulations of the compounds of the invention or control compounds were prepared as previously described (Trevaskis, N. L. et al., Pharmaceutical Research, 2005, 22(11), 1863-1870, WO 2016/023082, and WO 2017/041139, hereby incorporated by reference).
In brief, either 1 or 2 mg of test prodrug, 40 mg oleic acid and 25 mg Tween 80 were mixed in a glass vial and incubated at 37° C. for 12-18 h to equilibrate. An aqueous phase consisting of 5.6 ml phosphate buffered saline (PBS, pH 7.4) was subsequently added to the lipid phase (tofacitinib was dissolved in PBS for the preparation of tofacitinib-containing formulations) and the formulation emulsified by ultrasonication with a Misonix XL 2020 ultrasonic processor (Misonix, Farmingdale, NY, USA) equipped with a 3.2-mm microprobe tip running at 30% of the maximal amplitude of 240 μm and a frequency of 20 kHz for 2 min at room temperature. Doses for administering to more than one animal can be prepared in one batch by suitably increasing the quantities given above. Drug/prodrug concentrations in all formulations were verified using HPLC-MS.
Male Sprague-Dawley (SD) rats were selected for the lymphatic transport studies. Rats (typically 240-320 g) were maintained on a standard diet and fasted overnight with free access to water prior to experiments.
Anesthetized rats were placed on a heated pad at 37° C. and cannulas inserted into the duodenum (for formulation administration and rehydration), mesenteric lymph duct (for lymph collection), and carotid artery (in cases where blood collection was conducted). Post-surgery, rats were re-hydrated for 0.5 h via intraduodenal infusion of normal saline at 2.8 mL/h. The lipid formulations were infused into the duodenum at 2.8 mL/h for 2 h after which, normal saline was infused at 2.8 mL/h for the remainder of the experiment. Lymph was continuously collected for up to 8 h into pre-weighed Eppendorf tubes containing 10 μL of 1,000 IU/mL heparin. The collection tubes were changed hourly and lymph flow was measured gravimetrically. Aliquots of hourly lymph samples were stored at −20° C. prior to assay.
For most compounds, drug concentration in lymph is expressed as total drug and includes free drug and drug associated with different glycerides. Lymph samples were first treated with a lipase or other appropriate conditions to liberate free active agent prior to measurement of active agent levels in the lymph. Treatment with a lipase or other hydrolysis conditions liberates free active agent from any corresponding re-esterified glycerides. Porcine pancreatic lipase is appropriate for this purpose. Alternatively, hydrolysis with 0.5 M NaOH may be used.
For certain compounds, drug concentration was measured for the intact lipid prodrug specifically, without exposing the lymph samples to hydrolysis conditions.
Transport of compounds into lymph during each hourly collection period was calculated from the product of the volume of lymph collected and the measured concentrations in lymph. For fluorescent or fluorescently-labelled compounds, the concentrations of total compound may be measured by fluorescence spectroscopy without hydrolysis.
Table 5 summarizes lymphatic transport of total tofacitinib related compound (% of administered dose) following intraduodenal infusion to anaesthetised, mesenteric lymph-duct cannulated rats. Data are presented as mean±SD when n≥3 or mean± range when n=2. […]

The test system of data set [2] is plasma supplemented with lipoprotein lipase (LPL). As to the kind of experiment: In vitro release of therapeutic agent from prodrugs in plasma supplemented with lipoprotein lipase. It counts as in vitro ADME. To be noted: rat and/or human plasma supplemented with LPL; for In vitro hydrolysis profile: conversion to monoglyceride form / In vitro hydrolysis profile: further conversion products: 37° C., 0-180 min. How it is done:
In order to probe the release of free drug from TG prodrugs in the systemic circulation, prodrugs are incubated with plasma (rat, mouse, dog, pig or human) supplemented with lipoprotein lipase (LPL, 200 IU/ml). LPL is a key enzyme required for the hydrolysis of lipoprotein associated TG in the systemic circulation and is therefore expected to be a key contributor to lipolysis of the re-esterified drug-TG construct in plasma, largely via liberation of fatty acids in the sn-1 and the sn-3 position of the TG-mimetic, prior to drug release from the 2′ position via esterase hydrolysis. […] is tethered to the luminal surface of vascular endothelial cells under physiological conditions. In the current in vitro studies, plasma is therefore supplemented with LPL to better reflect the in vivo situation.
To start hydrolysis, 10 μl of LPL solution (10,000 IU/ml) was added to a mixture of 10 μl of prodrug solution (1 mg/ml dissolved in acetonitrile) and 500 μl of blank plasma. The mixture was incubated at 37° C. Samples (20 μl) of the incubation solution were taken at 0, 5, 15, 30, 60, 90, 120 and 180 minutes post-incubation and added to 180 μl of MeCN to stop lipolysis. The mixture was vortexed and centrifuged at 4500×g for 5 minutes to precipitate proteins prior to analysis. The supernatant was analyzed by HPLC-MS/MS for the potential products (MG form, acid form, and free drug) of prodrug hydrolysis.
The in vitro hydrolysis profile of selected prodrug compounds was determined in rat and/or human plasma supplemented with LPL. […] The acid intermediate was not observed for prodrug I-5. The acid intermediates are believed to have the structures shown in Table 6, below, based on HPLC-MS data.

The target in data set [3] is T1, porcine pancreatic lipase (Sus scrofa, UniProt P00591).
T1 construct: dispersion of 1 g porcine pancreatin in 5 ml of lipolysis buffer; from tissue; host or cells: porcine pancreatin (pancreas extract), supernatant after centrifugation
T1 sequence (P00591 1-450): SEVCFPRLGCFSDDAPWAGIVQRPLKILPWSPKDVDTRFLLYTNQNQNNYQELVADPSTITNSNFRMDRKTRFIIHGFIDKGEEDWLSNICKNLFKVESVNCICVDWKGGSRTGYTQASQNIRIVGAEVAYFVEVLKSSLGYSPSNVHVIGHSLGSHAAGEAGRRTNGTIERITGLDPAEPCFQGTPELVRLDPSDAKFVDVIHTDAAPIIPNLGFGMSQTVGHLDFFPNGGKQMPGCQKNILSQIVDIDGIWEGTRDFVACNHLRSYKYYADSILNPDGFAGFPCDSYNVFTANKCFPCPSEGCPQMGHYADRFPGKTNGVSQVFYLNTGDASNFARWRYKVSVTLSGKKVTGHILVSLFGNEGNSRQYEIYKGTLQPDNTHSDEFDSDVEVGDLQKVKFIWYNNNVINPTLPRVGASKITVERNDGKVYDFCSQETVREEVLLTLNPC
T1 sequence (P02703 23-112 partner): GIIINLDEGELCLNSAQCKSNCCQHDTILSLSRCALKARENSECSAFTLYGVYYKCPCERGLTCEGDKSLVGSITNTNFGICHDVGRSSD
As to the kind of experiment: In vitro hydrolysis by porcine pancreatic lipase in simulated intestinal micellar solution. To be noted: for In vitro hydrolysis: acid intermediates: HPLC-MS; for In vitro hydrolysis: conversion to monoglyceride form / In vitro hydrolysis: fate of the monoglyceride: simulated intestinal micellar solution, 37° C., 0-180 min. It counts as in vitro ADME. Here is the method:
Hydrolysis of test compounds in vitro was performed via incubation with porcine pancreatic lipase. This provides a more reproducible source of pancreatic enzymes, facilitates enhanced experimental throughput, and is also a greater challenge than collected rat enzymes (as described below, since enzyme activity in rat intestinal fluid is low). Briefly, pancreatic lipase solution was prepared prior to the hydrolysis experiment by dispersion of 1 g porcine pancreatin in 5 ml of lipolysis buffer and 16.9 μL of 0.5 M NaOH. The suspension was mixed well and centrifuged at 3500 rpm for 15 minutes at 5° C. to provide a supernatant. An amount of 1000 mL of lipolysis buffer was prepared with 0.474 g of tris-maleate (2 mM), 0.206 g of CaCl2·H2O (1.4 mM) and 8.775 g of NaCl (150 mM) adjusted with NaOH to pH 6.5. To assess the potential for prodrug hydrolysis in the intestine, 20 μL of prodrug solution (1 mg/mL dissolved in acetonitrile), 900 μL of simulated intestinal micellar solution [prepared with 0.783 g of NaTDC (3 mM) and 0.291 g of phosphatidyl choline (0.75 mM) in 500 mL lipolysis buffer] and 100 μL of enzyme solution were incubated at 37° C. 20 μL samples of the incubation solution were taken at 0, 5, 10, 15, 30, 60, 90, 120 and 180 minutes post incubation and added to 180 μL of MeCN to stop lipolysis. The mixture was vortexed and centrifuged at 5000 rpm for 5 minutes to precipitate proteins prior to analysis. The supernatant was analyzed by HPLC-MS for residual compound concentrations, and the potential products of compound hydrolysis analyzed.
On incubation with digestive enzymes, the monoglyceride forms of the prodrugs are formed very rapidly. The stability in simulated intestinal conditions is therefore better assessed by the stability of the monoglyceride form that is generated by the initial digestion process. The monoglyceride form should remain intact to be absorbed and re-esterified in the enterocyte prior to entry into the lymphatics. A comparison of the stability profiles of the monoglyceride forms of test compounds during in vitro incubation with porcine pancreatic lipase (or freshly collected rat bile and pancreatic fluid (BPF), as described below) was used to evaluate the influence of linker structure on the stability of the monoglyceride intermediates.

`CCCCCCCCCCCCCCCC(=O)OCC(COC(=O)CCCCCCCCCCCCCCC)OC(=O)CC(C)CC(=O)OC(C)n1ccc2c(N(C)[C@H]3CN(C(=O)CC#N)CC[C@H]3C)ncnc21` (stereo partly drawn) [I-5, 1-(1,3-bis(palmitoyloxy)propan-2-yl) 5-(1-(4-(((3R,4R)-1-(2-cyanoacetyl)-4-methylpiperidin-3-yl)(methyl)amino)-7H-pyrrolo[2,3-d]pyrimidin-7-yl)ethyl) 3-methylpentanedioate]: the “Cumulative lymphatic transport % dose” value in data set [1] is reported as “D (lymphatic transport assay result of less than 0.05% (<0.05%))”. Moreover, in data set [2], the “In vitro hydrolysis profile: conversion to monoglyceride form” value is listed as “rapidly converted into their monoglyceride form”; the “In vitro hydrolysis profile: further conversion products” value is “further conversion to tofacitinib and an acid intermediate”. Also, the “In vitro hydrolysis profile: acid intermediate” value in data set [2] (HPLC-MS) is on record as “not observed”. Besides, in data set [3], the “In vitro hydrolysis: acid intermediates” value is “not observed”, the “In vitro hydrolysis: conversion to monoglyceride form” value is on record as “rapidly converted to the prodrug's monoglyceride form” and the “In vitro hydrolysis: fate of the monoglyceride” value was “converted to free parent tofacitinib over time”.
Take `CCCCCCCCCCCCCCCC(=O)OCC(COC(=O)CCCCCCCCCCCCCCC)OC(=O)CC(C)CCCCCCCC(C)C(=O)n1ccc2c(N(C)[C@H]3CN(C(=O)CC#N)CC[C@H]3C)ncnc21` (stereo partly drawn) [I-6, 2-((12-(4-(((3R,4R)-1-(2-cyanoacetyl)-4-methylpiperidin-3-yl)(methyl)amino)-7H-pyrrolo[2,3-d]pyrimidin-7-yl)-3,11-dimethyl-12-oxododecanoyl)oxy)propane-1,3-diyl dipalmitate]: the “Cumulative lymphatic transport % dose” value in data set [1] is “B (lymphatic transport assay result between 1% and 10% (1%-10%))”. Further, in data set [2], the “In vitro hydrolysis profile: conversion to monoglyceride form” value was “rapidly converted into their monoglyceride form”; the “In vitro hydrolysis profile: further conversion products” value was “further conversion to tofacitinib and an acid intermediate”. Further, in data set [3], the “In vitro hydrolysis: acid intermediates” value is listed as “not observed”, the “In vitro hydrolysis: conversion to monoglyceride form” value is on record as “rapidly converted to the prodrug's monoglyceride form” and the “In vitro hydrolysis: fate of the monoglyceride” value is on record as “converted to free parent tofacitinib over time”.
